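Grown in 96-well plates, cells were treated for 48 hours with each compound at five concentrations. Insufficient inhibition: endpoint recorded as highest concentration tested. GI50 = concentration required for 50% inhibition of growth.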 Activity calls are given as the source filed them. Cut-off read from the data, not from the text of the source: active = GI50 up to about 1.1 µM and inactive = higher. Residues, ends and D or L forms follow the SMILES beside them. *: point of attachment. Boc = CC(C)(C)OC(=O)*
Columns and labels:
Assay in all cases: growth of human tumour cells (NCI), 48 h
[1] = system: MDA-N
[2] = system: M19-MEL
[3] = system: DLD-1
[4] = system: XF498
[5] = system: SNB-78
[6] = system: LXFL 529
[7] = system: KM-20L2
[8] = system: DMS-273

## COc1ccc(CCCNC(=O)Cc2ccccc2CO)cc1OC
[1]
  GI50: > 100 µM (inactive)

## NC(=S)N/N=C(/CCN1CCCC1)CC(C1=C(O)C2=CCCCC2OC1=O)c1ccccc1 (stereo not drawn)
[2]
  GI50: > 100 µM (inactive)
[3]
  GI50: > 100 µM (inactive)
[4]
  GI50: > 100 µM (inactive)
[5]
  GI50: > 100 µM (inactive)
[6]
  GI50: > 100 µM (inactive)
[7]
  GI50: > 100 µM (inactive)

## [N-]=[N+]=Nc1c(N2CCOCC2)c(Cl)nc2ccccc12
[1]
  GI50: 48.8 µM (inactive)

## Cc1cccc(-n2c(N)c(-c3nc4ccccc4[nH]3)sc2=S)c1
[2]
  GI50: 25.8 µM (inactive)
[3]
  GI50: 25.1 µM (inactive)
[8]
  GI50: 20.1 µM (inactive)
[6]
  GI50: 21 µM (inactive)

## Cc1cc(O)c(C(O)c2ccccn2)cc1O (stereo not drawn)
[1]
  GI50: 18.7 µM (inactive)

## S=P(C1CCCCC1)(C1CCCCC1)C(c1cccnc1)N1CCCC1 (stereo not drawn)
[1]
  GI50: 20.1 µM (inactive)

## NNC(=O)CC(=O)Nc1ccc(C(=O)O)cc1
[1]
  GI50: > 100 µM (inactive)

## O=C1/C(=C/c2ccco2)N=C2Sc3c([nH]cnc3=O)N12
[1]
  GI50: > 100 µM (inactive)

## N=C(N)NS(=O)(=O)c1ccc(NC(=O)c2cccc3cc4ccccc4nc23)cc1
[2]
  GI50: > 100 µM (inactive)
[3]
  GI50: > 100 µM (inactive)
[4]
  GI50: 99.5 µM (inactive)
[8]
  GI50: > 100 µM (inactive)
[5]
  GI50: 40.6 µM (inactive)
[6]
  GI50: 21.7 µM (inactive)
[7]
  GI50: > 100 µM (inactive)

## O=C1Nc2cccc(C(F)(F)F)c2/C1=N/Nc1ccccc1[N+](=O)[O-]
[1]
  GI50: 17.7 µM (inactive)

## Clc1ccc(C2=Cc3nc2c(-c2ccccc2)c2ccc([nH]2)c(-c2ccccc2)c2nc(c(-c4ccccc4)c4ccc([nH]4)c3-c3ccccc3)C=C2)cc1
[1]
  GI50: > 62.5 µM (inactive)

## O=C(Nc1ccc([N+](=O)[O-])cc1[N+](=O)[O-])C(=O)C(C(=O)c1ccc(Cl)c(Cl)c1)C1OC(=O)c2ccccc21 (stereo not drawn)
[2]
  GI50: 25.1 µM (inactive)
[3]
  GI50: 19.1 µM (inactive)
[8]
  GI50: 31 µM (inactive)
[5]
  GI50: 21.9 µM (inactive)
[6]
  GI50: 17.1 µM (inactive)
[7]
  GI50: 29.8 µM (inactive)

## O=[N+]([O-])c1ccc(Cl)c(CNc2ncnc3c2ncn3C2CCCCO2)c1 (stereo not drawn)
[1]
  GI50: 12.7 µM (inactive)

## O=C(CC(=O)Nc1ccccc1Cl)NNC(Sc1ccccc1)c1cc(/N=N/c2ccc(Br)cc2)ccc1O (stereo not drawn)
[1]
  GI50: 2.06 µM (inactive)

## O=C(/C=C/NC(=O)OCc1ccccc1)OCc1ccccc1
[1]
  GI50: > 100 µM (inactive)

## CCOc1ccc(N/C(=C(/C(Cl)=C(/Cl)N2CCCCC2)[N+](=O)[O-])n2nnc3ccccc32)cc1
[1]
  GI50: 16.3 µM (inactive)

## CCCCCCCCCCCCCCCCCCNc1ccn(C2OC(COP(=O)(O)OCC3OC(n4cc(C)c(=O)[nH]c4=O)CC3F)C(O)C2O)c(=O)n1 (stereo not drawn)
[1]
  GI50: 8.15 µM (inactive)

## O=C(CN1C(=O)c2ccccc2C1=O)OCC1CCCN2CCCCC12 (stereo not drawn)
[1]
  GI50: > 100 µM (inactive)

## O=C(O)CN1CCNCCN(CC(=O)O)CCN(CC(=O)O)CCNCC1
[1]
  GI50: > 100 µM (inactive)

## Cc1cc(NS(=O)(=O)c2ccc(NC(=O)c3cccc4c(NNc5ccc(S(N)(=O)=O)cc5)c5ccccc5nc34)cc2)no1
[1]
  GI50: 52.1 µM (inactive)

## COc1ccccc1N1C(=O)/C(=C\c2cc(OC)c(OC)c(OC)c2)S(=O)(=O)C1c1ccccc1 (stereo not drawn)
[1]
  GI50: 18.4 µM (inactive)

## CC(=O)/N=C1/N(/C=C2\C(=O)Oc3ccccc3C2=O)C(=O)/C(=C/c2ccccc2Cl)N1C
[1]
  GI50: > 100 µM (inactive)

## COc1ccc(C(=O)/C=C2\Nc3cccnc3N\C2=C/C(=O)c2ccc(OC)cc2)cc1
[1]
  GI50: 64.7 µM (inactive)

## CN(C)/C=N\c1c(Br)cc(Br)c2nonc12
[1]
  GI50: > 100 µM (inactive)

## Cc1cccc(CC(Cc2c(C)cccc2C(=O)O)C(=O)O)c1 (stereo not drawn)
[1]
  GI50: > 100 µM (inactive)

## C1CCC(CC2CCC(NC3=NCCO3)CC2)CC1 (stereo not drawn)
[1]
  GI50: 20.3 µM (inactive)

## COc1ccc(Cc2ccc3nc(O)cc(C)c3c2)cc1S(=O)(=O)O
[1]
  GI50: > 100 µM (inactive)

## COC(=O)C(Cc1c[nH]c2ccccc12)NC(=O)C(Cc1c[nH]c2ccccc12)NC(=O)C(Cc1c[nH]c2ccccc12)NC(=O)C(Cc1c[nH]c2ccccc12)NC(=O)OC(C)(C)C (stereo not drawn) (Boc-WWWW-OMe; configuration not given here)
[1]
  GI50: 18.5 µM (inactive)

## Cc1c(-c2cnccn2)ssc1=S [OLTIPRAZ]
[1]
  GI50: > 100 µM (inactive)

## Cc1cn([C@H]2C[C@H](N=[N+]=[N-])[C@@H](CO)O2)c(=O)[nH]c1=O [ZIDOVUDINE]
[2]
  GI50: > 100 µM (inactive)
[3]
  GI50: > 100 µM (inactive)
[1]
  GI50: 655 µM (inactive)
[8]
  GI50: > 100 µM (inactive)
[7]
  GI50: > 100 µM (inactive)

From ChEMBL document CHEMBL1201862, “PubChem BioAssay data set” (2004)
